Laboratory results: patent US10011868B2, “Reactivity-dependent and interaction-dependent PCR” (priority 2009, dated 2018)
Where two headings read alike, the source gives them in different places. Numbered stars: 1 amine (or outer) side, 2 acyl side, 3 side chain; on linkers, the order of the positions; unused ones are H or OH. Peptide text beside a SMILES is read from it. CO = O=C([*:1])[*:2]

Legend:
streptavidin [1] = molecular target: T1, streptavidin (Streptomyces avidinii, UniProt P22629); assay: ID-PCR model selection, ligand library x target library in one solution (FIG. 22); format: binding; details: DNA-linked ligand; relative to control lacking proteins; 261 ligand x 259 target sequences
T1 construct: 5'-carboxylate ssDNA oligonucleotide 1a (Cy3-labelled), chemically coupled via NHS ester; purchased New England Biolabs
Description: (§1) Finally, we tested the ability of ID-PCR to simultaneously evaluate all possible combinations of multiple ligands and multiple targets in a single solution. […] The negative control ligand and target were conjugated to libraries of 256 different sequence tags. The resulting solution therefore contained equimolar quantities of each of 261 ligand sequences and each of 259 target sequences, collectively representing 67,599 possible ligand-target sequence combinations. A control sample was prepared identically except using DNA not conjugated to any protein targets. Both samples were subjected to ID-PCR followed by high-throughput DNA sequencing.
(§2) A control primer extension reaction was also performed using the same pool of ligand strands, but with a pool of target strands lacking conjugated proteins (1, 1i, 1j, 60 pM each and 1k, 9.8 nM). Adapter sequences required for Illumina sequencing, as well as barcodes identifying the input and selection experiments, were installed by PCR with either Primer C (input control) or Primer D (selection) and Primer E. The appropriate cycle number for each reaction was determined by qPCR evaluation, such that preparative PCR reactions (50 μL total volume) were stopped in the exponential amplification phase in order to minimize dynamic compression during PCR. […]

streptavidin [2] = molecular target: T1, streptavidin; assay: Gel shift of 2b-desthiobiotin/streptavidin complex (FIG. 25c); format: binding; details: duplex 10 nM, read-out: apparent Kd for streptavidin
Description: The DNA-ligand conjugate 2b-desthiobiotin was hybridized to a complementary 20-mer carrying a Cy3 label at the 3′-end. The resulting duplex (10 nM) was incubated with increasing concentrations of streptavidin in binding buffer (145 mM NaCl, 10 mM Tris/HCl, 10 mM MgCl2, 7 mM Na2PO4, 1.9 mM KCl, 1 mM dithiothreitol, pH 7.4), for 1 h and analyzed on a 20% TBE polyacrylamide gel. The appearance of a higher molecular weight band indicated formation of a streptavidin-2b-desthiobiotin complex. The apparent Kd was determined from the streptavidin concentration for which the bands corresponding to free DNA and to the complex were of approximately equal intensity.

streptavidin (1a-SA) = molecular target: T2, streptavidin (1a-SA) (Streptomyces avidinii, UniProt P22629); assay: ID-PCR on single target-ligand pair, qPCR threshold cycle (FIG. 20b); format: binding; details: with 1a-SA, Klenow extension and qPCR
T2 construct: 5'-carboxylate ssDNA oligonucleotide 1a (Cy3-labelled), chemically coupled via NHS ester; purchased New England Biolabs
Description: We investigated whether binding between a small molecule and a protein could replace a covalent linkage in a DNA hairpin and support extension and PCR. […] The target and ligand strands shared a 6-nt complementary region.
An extension mixture consisting of 10×NEB Buffer 2 (2 μL), dNTPs (660 pmol each in 2 μL water), and the target strand (200 fmol in 9 μL PBS) was incubated at 37° C. for 5 minutes. The appropriate ligand strand (200 fmol in 2 μL water) was added and the reaction mixture was incubated at 37° C. for 15 minutes. Klenow fragment exo^− (2.5 U in 5 μL of 1×NEB Buffer 2, New England Biolabs) was added. The primer extension reaction (final volume=20 μL) was incubated at 37° C. for 15 minutes. The polymerase was inactivated by heating to 75° C. for 20 minutes.
For each 25 μL qPCR reaction, 12.5 μL of 2×SYBR Green iQ Supermix (Bio-Rad) was combined with 1 μL of 10 μM Primer A, 1 μL of 10 μM Primer B, and 9.5 μL Milli Q H2O. […] Quantitative PCR was performed using a CFX-96 Real-Time System with a C1000 Thermal Cycler (Bio-Rad). […]
All primer extension and qPCR reactions were performed as described above, except that free ligand (200 pmol in 2 μL 10% DMSO) or DMSO (2 μL of 10% DMSO) was added when appropriate. […] Unless otherwise noted, PCR products were analyzed by PAGE on 10% TBE gels at 200 V for 25 minutes staining with ethidium bromide and imaging on a Chemilmager (AlphaInnotech). […]

trypsin [3] = molecular target: T3, trypsin (Bos taurus, UniProt P00760); assay: Trypsin inhibition, fluorogenic substrate Z-Arg-AMC (FIG. 25d); format: biochemical, bovine
T3 sequence (P00760 24-246): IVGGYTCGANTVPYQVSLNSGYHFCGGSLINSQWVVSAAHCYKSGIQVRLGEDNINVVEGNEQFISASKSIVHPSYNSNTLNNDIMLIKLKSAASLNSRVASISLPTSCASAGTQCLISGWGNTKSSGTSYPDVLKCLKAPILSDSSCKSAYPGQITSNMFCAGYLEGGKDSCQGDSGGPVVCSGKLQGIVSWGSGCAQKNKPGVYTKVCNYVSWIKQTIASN
Description: Conditions were adopted from a previously reported protocol.^17 Trypsin (200 fmol) was diluted in 90 μL PBS and was incubated with various concentrations of antipain, a known inhibitor of tryptic proteolysis, or 2e-antipain. The solution was equilibrated at room temperature for 10 minutes and at 35° C. for 5 minutes before addition of the fluorogenic proteolytic substrate Z-Arg-AMC (Bachem) (10 nmol in 10 μL 50% DMSO) (final volume=100 μL).
Equation Used to Fit Ki from Inhibitory Curves (FIGS. 25a, b, d).
The Ki was determined by fitting the following equation to the plot of normalized activity vs. inhibitor concentration: Vo=c+d(([E]tot+[i]tot+Ki)−sqrt((−[E]tot−[I]tot−Ki)^2−4*[E]tot*[I]tot))/(2*[E]tot), where Vo is initial reaction velocity, [E]tot is total enzyme concentration, [I]rot is total inhibitor concentration; c and d are variable parameters for the maximum Vo and for the difference between the minimum and maximum Vo, respectively.

trypsin [4] = molecular target: T3, trypsin; details: trypsin and antipain; cited from earlier work
carbonic anhydrase [5] = molecular target: T4, carbonic anhydrase (Bos taurus, UniProt P00921); assay: Carbonic anhydrase enzymatic activity inhibition, 4-nitrophenyl acetate substrate (FIG. 25a,b); format: biochemical, bovine; details: 37° C.; read-out: Ki for CA
carbonic anhydrase [6] = molecular target: T4, carbonic anhydrase; assay: ID-PCR model selection, ligand library x target library in one solution (FIG. 22); format: binding, bovine; details: DNA-linked ligand; relative to control lacking proteins; 261 ligand x 259 target sequences
Description: as §1, §2

[7] = molecular target: carbonic anhydrase II (CA) (Bos taurus, UniProt P00921); details: cited from earlier work
[8] = molecular target: 68-nt DNA aptamer that binds daunomycin; details: DNA aptamer and daunomycin; cited from earlier work
streptavidin (SA) = streptavidin (SA) (Streptomyces avidinii, UniProt P22629); details: free ligand and streptavidin; cited from earlier work
Sequence of streptavidin (SA) (P22629 25-183): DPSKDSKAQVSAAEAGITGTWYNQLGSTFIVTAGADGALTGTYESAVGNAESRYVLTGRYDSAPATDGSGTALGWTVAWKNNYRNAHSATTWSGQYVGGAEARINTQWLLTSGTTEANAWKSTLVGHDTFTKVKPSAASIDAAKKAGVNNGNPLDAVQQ

T1 sequence (P22629 25-183): as above
T4 sequence (P00921 whole entry): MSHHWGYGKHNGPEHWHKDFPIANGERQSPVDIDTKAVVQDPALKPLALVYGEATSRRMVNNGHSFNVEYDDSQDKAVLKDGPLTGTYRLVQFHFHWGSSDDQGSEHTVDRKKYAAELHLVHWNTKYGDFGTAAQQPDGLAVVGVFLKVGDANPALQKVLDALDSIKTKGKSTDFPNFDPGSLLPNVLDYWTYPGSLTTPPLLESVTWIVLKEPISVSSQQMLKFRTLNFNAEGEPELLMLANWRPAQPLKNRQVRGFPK
Sequence of carbonic anhydrase II (CA) (P00921 whole entry): as above
T2 sequence (P22629 25-183): as the sequence (P22629 25-183) above

**Q.** With `O=C(O)CCCC[C@@H]1SC[C@@H]2NC(=O)N[C@@H]21` [biotin] as the compound, how does the “Enrichment Factor” value (streptavidin [1]) read?
**A.** Its value is 860.

**Q.** Which results are given for “2b-desthiobiotin: ligand strand 2 conjugated to desthiobiotin (SEQ 57) (TGGATCGTGATGACTGTCCCGACAAGCATACGTATCTCACT; desthiobiotin conjugated, position not given here)”?
**A.** Kd (streptavidin [2]): 8 nM; amplification efficiency in ID-PCR (streptavidin (1a-SA)): comparable to that of 2a-biotin

**Q.** For `CC(C)[C@H](NC(=O)[C@H](CCCNC(=N)N)NC(=O)N[C@@H](Cc1ccccc1)C(=O)O)C(=O)N[C@H](C=O)CCCNC(=N)N` [antipain] ({Phe-CO}-Arg-Val-Arg-aldehyde), which Ki (trypsin [3]) is on record?
**A.** Its Ki is 39.5 nM.

**Q.** What about the Ki (trypsin [4]) of the same compound?
**A.** The Ki was 100 nM.

**Q.** For “2s-GLCBS: GLCBS-DNA conjugate (SEQ 78) (DNA TGGATCGTGATGACTGTCCCGACAAGGATCCGTATCTCACT; DNA, backbone and methylation of C not given here; GLCBS conjugated at 3' end, further chemistry not fully specified)”, which Ki (carbonic anhydrase [5]) is on record?
**A.** Its Ki is 380 nM.

**Q.** For Gly-Leu-CBS [GLCBS], which “Enrichment Factor” value (carbonic anhydrase [6]) is on record?
**A.** The value was 225.

**Q.** What about the Ki (carbonic anhydrase [5]) of the same compound?
**A.** The Ki was 470 nM.

**Q.** And the Ki ([7]; FIG. 20 legend)?
**A.** The Ki was 9 nM.

**Q.** And the Kd ([7]; text b276)?
**A.** The Kd was 9 nM.

**Q.** Which Kd [8] does the source give for `COc1cccc2c1C(=O)c1c(O)c3c(c(O)c1C2=O)C[C@@](O)(C(C)=O)C[C@@H]3O[C@H]1C[C@H](N)[C@H](O)[C@H](C)O1` [daunomycin] here?
**A.** The Kd was 272 nM.

**Q.** With `C[C@@H]1NC(=O)N[C@@H]1CCCCCC(=O)O` [desthiobiotin] as the compound, how does the Kd (streptavidin (SA)) read?
**A.** The Kd was 2 nM.

**Q.** What about the “Enrichment Factor” value (streptavidin [1]) of the same compound?
**A.** The value was 3078.
